According to paper PMC6014687 (Journal of Medicinal Chemistry, 2016):
Where “and” joins values, the source holds several entries; their conditions need not be identical. Equal values may be shown once. Read-outs that look alike come from different tables or passages of the source.

What was measured:
[1] = system: SK-OV-3 cells; assay: cells; conditions: Homo sapiens, SK-OV-3, 96 h
[2] = system: SK-OV-3 human ovarian carcinoma xenograft; conditions: female, NCr athymic, mouse, in vivo
[3] = in vivo; conditions: female, BALB/c, mouse, 5 mg/kg; for AUC(0-inf): AUCinf; for AUC(0-t): AUClast
Procedure: Experimental work was done in accordance with Home Office regulations under the
UK National Cancer Research CR I Guidelines with local Ethical Committee approval.9
Female BALB/c and Ncr-Foxn1nu mice were obtained from Charles River (Margate, UK).
Animals were adapted to laborator y conditions for at least 1 week prior to dosing and were
allowed food and water ad libitum. Compounds were administered iv or po (0.1 m L/10 g) in
hydrox yprop yl beta c ycl odextrin in 50 mM sodium citrate buff er (Ncr-Foxn1nu PK). Blood
spotted onto Whatman FTA-DMPK B cards (VWR) together with a calibration curve and
qualit y controls spiked in control blood. Cards were allowed to dr y at room temperature for at
least 2 h. 6 mm discs were punched from the cards and extracted with 200 µ L methanol
containing 500 nM olo moucine as an internal standard. Following centrifugation, extracts
were anal yzed b y multiple reaction monitoring of precursor and product ions by LC-ES I-
% formic acid and methanol on a Phenomenex (Macclesfi eld, UK) Kinet exTM C18, 5 cm x
2.6 µ m, 2.1 mm i.d UHP LC column. Pharmac okinetic parameters were derived from non -

[4] = in vivo; conditions: female, mouse, po, 20 mg/kg
[5] = physchem; conditions: pH 7.4
[6] = system: SK-OV-3 cells
[7] = target: recombinant human pirin (Homo sapiens, UniProt O00625)
recombinant human pirin, sequence (O00625 whole entry): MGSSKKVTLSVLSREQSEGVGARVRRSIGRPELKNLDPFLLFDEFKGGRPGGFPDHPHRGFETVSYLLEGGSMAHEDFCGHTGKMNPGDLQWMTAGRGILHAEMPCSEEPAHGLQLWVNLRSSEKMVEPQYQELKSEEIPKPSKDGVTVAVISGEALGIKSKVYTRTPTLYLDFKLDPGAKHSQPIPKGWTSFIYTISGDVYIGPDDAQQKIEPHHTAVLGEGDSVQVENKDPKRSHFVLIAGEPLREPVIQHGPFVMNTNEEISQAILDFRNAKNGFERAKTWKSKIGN

[8] = system: WM266.4 cells; conditions: WM266.4, 30 h
[9] = read-out: SK-OV-3 pGI50±SEM (converted)

Structure (SMILES)	GI50 ([1]; read-out: SK-OV-3 GI50)	GI50 [1, 9]	also measured
Cc1ccc2cc(C(=O)Nc3cc(NC(=O)c4cccc5c4OCCO5)ccc3C)ccc2n1 [Compound 6, N-(5-(2,3-Dihydrobenzo[b][1,4]dioxine-5-carboxamido)-2-methylphenyl)-2-methylquinoline-6-carboxamide]	> 1000 nM	> 1000 nM	–
Cc1ccc2cc(C(=O)Nc3c(C)ccc(NC(=O)c4ccc5c(c4)OCCO5)c3C)ccc2n1 [Compound 11, N-(3-(2,3-Dihydrobenzo[b][1,4]dioxine-6-carboxamido)-2,6-dimethylphenyl)-2-methylquinoline-6-carboxamide]	> 1000 nM	> 1000 nM	–
Cc1ccc2cc(C(=O)Nc3cc(NC(=O)c4ccc5c(c4)OCCO5)c(C)cc3C)ccc2n1 [Compound 12, N-(5-(2,3-Dihydrobenzo[b][1,4]dioxine-6-carboxamido)-2,4-dimethylphenyl)-2-methylquinoline-6-carboxamide]	> 1000 nM	> 1000 nM	–
Cc1ccc2cc(C(=O)Nc3cc(NS(=O)(=O)c4ccc5c(c4)OCCO5)ccc3C)ccc2n1 [Compound 14, N-(5-(2,3-Dihydrobenzo[b][1,4]dioxine-6-sulfonamido)-2-methylphenyl)-2-methylquinoline-6-carboxamide]	> 1000 nM	> 1000 nM	–
Cc1ccc(NC(=O)c2ccc3c(c2)OCCO3)cc1NC(=O)c1ccc2ncccc2c1 [Compound 15, N-(5-(2,3-Dihydrobenzo[b][1,4]dioxine-6-carboxamido)-2-methylphenyl)quinoline-6-carboxamide]	8.6 nM	2.51 nM	–
COCCOc1ccc2cc(C(=O)Nc3cc(NC(=O)c4ccc5c(c4)OCCO5)ccc3C)ccc2n1 [Compound 21, N-(5-(2,3-Dihydrobenzo[b][1,4]dioxine-6-carboxamido)-2-methylphenyl)-2-(2-methoxyethoxy)quinoline-6-carboxamide]	4.3 nM	4.27 nM	–
Cc1ccc(NC(=O)c2ccc3c(c2)OCCO3)cc1NC(=O)c1ccc2nc(OCCCN(C)C)ccc2c1 [Compound 22, N-(5-(2,3-Dihydrobenzo[b][1,4]dioxine-6-carboxamido)-2-methylphenyl)-2-(3-(dimethylamino)propoxy)quinoline-6-carboxamide]	1.1 nM	1.15 nM	–
Cc1ccc(NC(=O)c2ccc3c(c2)OCCO3)cc1NC(=O)c1ccc2nc(OCCCN3CCOCC3)ccc2c1 [Compound 23, N-(5-(2,3-Dihydrobenzo[b][1,4]dioxine-6-carboxamido)-2-methylphenyl)-2-(3-morpholinopropoxy)quinoline-6-carboxamide]	7.4 nM	7.41 nM	–
Cc1ccc(NC(=O)c2ccc3c(c2)OCCO3)cc1NC(=O)c1ccc2nc(OCCN3CCCCC3)ccc2c1 [Compound 25, N-(5-(2,3-Dihydrobenzo[b][1,4]dioxine-6-carboxamido)-2-methylphenyl)-2-(2-(piperidin-1-yl)ethoxy)quinoline-6-carboxamide]	1.1 nM	–	–
Cc1ccc(NC(=O)c2ccc3c(c2)OCCO3)cc1NC(=O)c1ccc2nc(OCCN3CCCC3)ccc2c1 [Compound 26, N-(5-(2,3-Dihydrobenzo[b][1,4]dioxine-6-carboxamido)-2-methylphenyl)-2-(2-(pyrrolidin-1-yl)ethoxy)quinoline-6-carboxamide]	–	–	total tumor concentrations [2]: ≤ 940 nM; half-life at 24 h [3]: 5.3 h; AUC(0-inf) ([3]; iv): 14.8 µM·h; AUC(0-t) ([3]; iv): 14.1 µM·h; clearance ([3]; iv, Cl): 9.8 mL/min/kg; Cmax ([3]; iv): 3830 nM; Vd ([3]; iv, Vss): 3.26 L/kg; Vd at 24 h ([3]; iv, Vss): 4.2 L/kg; Vd ([3]; iv, Vz): 5.78 L/kg; clearance at 24 h ([3]; iv, blood Cl): 9.2 mL/min/kg; AUC(0-t) at 24 h ([3]; po, AUC0–24h PO): 5.8 µM·h; AUC(0-inf) ([3]; po): 6.09 µM·h; AUC(0-t) ([3]; po): 5.02 µM·h; Cmax ([3]; po): 828 nM; AUC(0-inf) ([4]; Ncr-Foxn1nu (athymic), AUCinf): 1.58 µM·h; AUC(0-t) ([4]; Ncr-Foxn1nu (athymic), AUClast): 1.53 µM·h; Cmax ([4]; Ncr-Foxn1nu (athymic), Cmax): 439 nM; AUC(0-t) at 24 h ([4]; athymic (Ncr-Foxn1nu), AUC0–24h PO): 1.9 µM·h; chromatographic logD [5]: 2.1
CCC(=O)NCCOc1ccc2cc(C(=O)Nc3cc(NC(=O)c4ccc5c(c4)OCCO5)ccc3C)ccc2n1 [Compound 27]	9.1 nM	9.12 nM	–
Cc1ccc(NC(=O)c2cccc3c2OCCO3)cc1NC(=O)c1ccc2nc(OCCN3CCCC3)ccc2c1 [Compound 28, N-(5-(2,3-Dihydrobenzo[b][1,4]dioxine-5-carboxamido)-2-methylphenyl)-2-(2-(pyrrolidin-1-yl)ethoxy)quinoline-6-carboxamide]	> 1000 nM	> 1000 nM	SK-OV-3 pGI50±SEM [6]: <6; AS (apparent stoichiometry) [7]: 1.18 and 1.11 and 1.80; antimigratory activity [8]: no measurable antimigratory activity
Cc1ccc(NC(=O)c2ccc3c(c2)OCCO3)cc1NC(=O)c1ccc2nc(OCCN)ccc2c1 [Compound 29, 2-(2-Aminoethoxy)-N-(5-(2,3-dihydrobenzo[b][1,4]dioxine-6-carboxamido)-2-methylphenyl)quinoline-6-carboxamide]	3.1 nM	3.09 nM	–
